Results from patent US6599860B1, “Herbicidal halogenalkyl-substituted 3-(4,5-dihydroisoxazol-3-yl)-benzoyl-cyclohexenones” (BASF Aktiengesellschaft, priority 1999, dated 2003).

Structure (SMILES): Cc1c(C(=O)C2C(=O)C3CCC(C3)C2=O)ccc(S(C)(=O)=O)c1C1=NOC(CCl)C1 (stereo not shown) [Compound 2.2, 3-[2-Methyl-3-(5-chloromethyl-4,5-dihydroisoxazol-3-yl)-4-methyl-sulfonylbenzoyl]bicyclo[3.2.1]octane-2,4-dione]
- melting point: 98 to 103 °C
